According to article PMC8400343, “Synthesis and Evaluation of the Antidepressant-like Properties of HBK-10, a Novel 2-Methoxyphenylpiperazine Derivative Targeting the 5-HT1A and D2 Receptors” (Pharmaceuticals, 2021):

Assays:
mice [1] = test: Forced swim test in naive mice; assay type: in vivo, mouse
Protocol: (§1) Adult male Albino-Swiss mice (CD-1, 8 weeks old, 18–21g: Jagiellonian University Medical College, Krakow, Poland) were used in all experiments. Unless stated otherwise, the animals were kept in groups of 10 mice in standard cages (37 cm × 21 cm × 15 cm) at a room temperature (22 ± 2 °C), on a 12 h light/dark cycle (lights on 7:00) with ad libitum access to food and water. Mice were used only once in each test. Behavioral experiments were performed between 8 am and 4 pm and evaluated by a trained observer blind to the treatments. Mice were handled for 1 week before starting the experimental procedures. Animals were randomly allocated to the treatment using a computer-generated sequence, and researchers making measurements on the animals or analyzing the results were blind to the allocation. Moreover, experimental groups were distributed across multiple cages, and the location of the mouse cages in the room was changed following each day.
HBK-10, WAY-100635 (Sigma, Darmstadt, Germany), p-chlorophenylalanine (pCPA; Sigma, Darmstadt, Germany), fluoxetine (Sigma, Darmstadt, Germany), reboxetine (Sigma, Darmstadt, Germany) and bupropion (Sigma, Darmstadt, Germany), were suspended in 1% Tween, and administered ip at a volume of 10 mL/kg 30 min before each behavioral test. The control groups received saline ip 30 min prior to testing. The doses of fluoxetine, reboxetine and bupropion as well as WAY-100635 and pCPA were based on our previous studies with 2-methoxyphenylpiperazine derivatives.
The experiment was performed on mice according to the method described by Porsolt et al. and as previously described. Mice were placed individually in glass cylinders (height 25 cm, diameter 10 cm) filled with water at 24 ± 1 °C to a depth of 10 cm and left there for 6 min. Following a 2 min habituation period, total time spent immobile was recorded during the next 4 min. The animal was considered as immobile when it remained floating passively in the water, making only small movements to keep its head above the water. The experiments were video-recorded and scored using elevenmaze.com software by a trained observer blind to the treatments.
To assess the involvement of a serotonergic system in the antidepressant-like activity of tested compounds in the forced swim test, the mice were pretreated with pCPA (tryptophan hydroxylase inhibitor) according to the method previously described. […]. Twenty-four hours after the last pCPA administration, we injected mice with 1% Tween ip or tested compound. We performed the forced swim test 30 min after the administration.
The putative involvement of 5-HT1A receptors in the antidepressant-like effect of tested compound was studied using WAY-100635 (a selective 5-HT1A receptor antagonist). WAY-100635 at a dose of 0.1 mg/kg was administered sc 15 min prior to the injection of HBK-10. After 30 min the forced swim test was performed. The behaviorally ineffective dose of WAY-100635 used in the experiments was based on our previous experiments.

human 5-HT6 receptor = biological target: T1, human 5-HT6 receptor (Homo sapiens, UniProt P50406); test: Radioligand binding, [3H]-LSD, CHO-K1 membranes; conditions: CHO-K1 cells, mean ± SEM, read-out: Serotonergic pKi 5-HT6 (converted)
T1 construct: expressed in transfected cells; host or cells: CHO-K1 (membranes)
T1 sequence (P50406 whole entry): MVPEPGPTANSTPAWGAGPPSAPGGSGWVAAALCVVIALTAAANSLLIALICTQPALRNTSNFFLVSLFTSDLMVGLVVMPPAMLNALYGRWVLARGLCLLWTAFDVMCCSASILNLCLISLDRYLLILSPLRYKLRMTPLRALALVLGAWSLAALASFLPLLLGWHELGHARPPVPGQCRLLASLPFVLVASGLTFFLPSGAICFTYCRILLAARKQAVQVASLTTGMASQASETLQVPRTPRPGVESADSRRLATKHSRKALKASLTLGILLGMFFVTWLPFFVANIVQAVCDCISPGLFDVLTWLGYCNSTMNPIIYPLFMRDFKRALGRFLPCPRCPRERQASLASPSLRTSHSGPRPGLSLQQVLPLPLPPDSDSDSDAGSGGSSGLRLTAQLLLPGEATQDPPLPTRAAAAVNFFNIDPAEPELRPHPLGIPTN
Protocol: (§2) Radioligand binding was performed on membranes from CHO-K1 cells stably transfected with the human 5-HT1A, 5-HT2A, 5-HT6, or 5-HT7 receptors. […] Binding experiments were conducted in 96-well microplates, and the reaction mix included the solution of the test compound, radioligand, and diluted membranes or the tissue suspension.
(§3) The reaction was terminated by rapid filtration through GF/B or GF/C filter mate presoaked with 0.3% polyethyleneimine for 30 min. Ten rapid washes with 200 µl 50 mM Tris buffer (4 °C, pH 7.4) were performed using an automated harvester system Harvester-96 MACH III FM (Tomtec). […] Radioactivity was counted in the MicroBeta2 scintillation counter (PerkinElmer) at approximately 30% efficiency. […] A single assay was performed with each compound concentrations in duplicate, and the whole assay was repeated in a three independent experiments.

dopaminergic D2 receptor = dopaminergic D2 receptor (Homo sapiens, UniProt P14416); test: Radioligand binding, [3H]-methylspiperon, CHO-K1 cells; conditions: mean ± SEM, read-out: Dopaminergic pKi D2 (converted)
dopaminergic D2 receptor, sequence (P14416 whole entry): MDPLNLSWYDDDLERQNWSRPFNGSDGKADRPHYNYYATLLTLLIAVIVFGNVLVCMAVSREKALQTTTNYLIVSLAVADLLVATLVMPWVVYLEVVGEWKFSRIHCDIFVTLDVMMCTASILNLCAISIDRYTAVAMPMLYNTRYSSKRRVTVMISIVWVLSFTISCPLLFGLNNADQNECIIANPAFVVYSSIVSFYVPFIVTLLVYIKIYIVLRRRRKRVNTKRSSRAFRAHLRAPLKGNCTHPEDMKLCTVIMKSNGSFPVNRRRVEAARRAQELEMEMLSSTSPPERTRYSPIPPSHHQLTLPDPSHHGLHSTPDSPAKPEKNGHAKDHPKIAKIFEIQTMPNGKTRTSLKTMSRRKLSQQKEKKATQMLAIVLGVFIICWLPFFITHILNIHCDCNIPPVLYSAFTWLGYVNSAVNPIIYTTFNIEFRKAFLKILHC
Protocol: as §3

mice [2] = test: Tail suspension test in mice; assay type: in vivo, mouse; conditions: 30 min before test
Protocol: as §1, with “day. […]” for “day.”
The experiment was carried out in mice according to the method described by Steru et al. and as previously described. […] The total time of immobility was measured during the 6-min test period. […] The experiments were video-recorded and scored using elevenmaze.com software by a trained observer blind to the treatments.

Rotarod test in mice = assay type: in vivo, mouse; conditions: mouse, in vivo; ip, log-probit method
Protocol: (§4) This experimental procedure was described in detail in our earlier studies. Briefly, mice were trained on the rotarod apparatus (May Commat RR0711, Turkey; rod diameter: 2 cm) every day for 3 consecutive days. During each training session, mice were placed for 3 min on the rotating rod (24 rpm, constant speed) with an unlimited number of trials. The experiment was performed 24 h after the last training session. On the test day, mice were injected with HBK-10, and 30 min after the administration tested on the rotarod (24 rpm, constant speed). Motor impairment was regarded as the inability to remain on the rotating rod for 60 s and was expressed as the % of animals that fell off the rotating rod.

mice [3] = test: Rotarod test in mice; assay type: in vivo, mouse
Protocol: as §4

human 5-HT7 receptor = biological target: T2, human 5-HT7 receptor (Homo sapiens, UniProt P34969); test: Radioligand binding, [3H]-5-CT, CHO-K1 membranes; conditions: CHO-K1 cells, mean ± SEM, read-out: Serotonergic pKi 5-HT7 (converted)
T2 construct: expressed in transfected cells; host or cells: CHO-K1 (membranes)
T2 sequence (P34969 whole entry): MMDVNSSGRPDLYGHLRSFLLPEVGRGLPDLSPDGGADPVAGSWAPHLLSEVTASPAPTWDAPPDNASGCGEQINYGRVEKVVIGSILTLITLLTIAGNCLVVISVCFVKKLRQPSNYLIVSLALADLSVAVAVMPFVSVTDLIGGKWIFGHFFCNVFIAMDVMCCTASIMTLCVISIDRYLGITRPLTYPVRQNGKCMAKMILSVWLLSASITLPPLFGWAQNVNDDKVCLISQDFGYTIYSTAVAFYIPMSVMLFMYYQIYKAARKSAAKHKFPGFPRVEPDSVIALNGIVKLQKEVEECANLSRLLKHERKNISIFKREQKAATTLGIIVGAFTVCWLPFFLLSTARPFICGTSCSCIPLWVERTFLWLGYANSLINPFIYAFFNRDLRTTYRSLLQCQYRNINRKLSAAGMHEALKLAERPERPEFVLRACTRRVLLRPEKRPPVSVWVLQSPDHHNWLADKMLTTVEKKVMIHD
Protocol: as §2, §3

SMILES: CCC(CN1CCN(c2ccccc2OC)CC1)NCCCOc1c(C)cccc1C.Cl.Cl (centres unmarked) [HBK-10, N-(3-(2,6-dimethylphenoxy)propyl)-1-(4-(2-methoxyphenyl)piperazin-1-yl)butan-2-amine dihydrochloride]
- Reduction of immobility in the forced swim test (mice [1]; 1.25 mg/kg ip, WAY-100635 experiment, no pretreatment): 35.7%
- Reduction of immobility in the forced swim test (mice [1]; 1.25 mg/kg ip, pCPA experiment, no pretreatment): 28.1%
- Reduction of immobility in the forced swim test (mice [1]; 1st of five values, dose range 1.25–10 mg/kg ip, 30 min before test (lowest dose 1.25 mg/kg)): 21.1%
- Reduction of immobility in the forced swim test (mice [1]; 2nd of five values, dose range 1.25–10 mg/kg ip, dose not given): 23.5%
- Reduction of immobility in the forced swim test (mice [1]; 3rd of five values, dose range 1.25–10 mg/kg ip, dose not given): 26.6%
- Reduction of immobility in the forced swim test (mice [1]; 4th of five values, dose range 1.25–10 mg/kg ip, dose not given): 44.2%
- Reduction of immobility in the forced swim test (mice [1]; 5th of five values, dose range 1.25–10 mg/kg ip (highest dose 10 mg/kg)): 47.2%
- Effect on immobility in the forced swim test, combined administration (mice [1]; HBK-10 0.625 mg/kg combined with bupropion 2.5 mg/kg, ip): did not significantly decrease the immobility
- Decrease of immobility in the forced swim test, combined administration (mice [1]; HBK-10 0.625 mg/kg combined with fluoxetine 10 mg/kg, ip): 40.9%
- Decrease of immobility in the forced swim test, combined administration (mice [1]; HBK-10 0.625 mg/kg combined with reboxetine 5 mg/kg, ip): 57.7%
- Antidepressant-like effect in the forced swim test after pCPA pretreatment (mice [1]; HBK-10 1.25 mg/kg ip after pCPA 200 mg/kg for three days): abolished
- Antidepressant-like effect in the forced swim test after WAY-100635 pretreatment (mice [1]; HBK-10 1.25 mg/kg ip, WAY-100635 0.1 mg/kg sc 15 min before): abolished
- Active dose in the forced swim test, fold lower than escitalopram (mice [1]; comparator data ref 19, 42): 2 fold
- Active dose in the forced swim test, fold lower than reboxetine (mice [1]; comparator data ref 19, 42): 8 fold
- Activity in the forced swim test at 0.625 mg/kg (mice [1]; naive mice, 0.625 mg/kg, single administration): inactive
- Lowest active dose in the forced swim test (mice [1]; naive mice, single administration): 1.25 mg/kg
- melting point: 224 to 226 °C
- Ki (human 5-HT6 receptor): 3.72 µM
- Ki (dopaminergic D2 receptor): 0.0501 µM
- Reduction of immobility in the tail suspension test (mice [2]; 5 mg/kg ip): 54.5%
- Reduction of immobility in the tail suspension test (mice [2]; 10 mg/kg ip): 42%
- TD50 at 30 min (Rotarod test in mice): 44.3 mg/kg
- % of Animals That Fell from Rotating Rod (mice [3]; 40 mg/kg ip): 29%
- % of Animals That Fell from Rotating Rod (mice [3]; 45 mg/kg ip): 63%
- % of Animals That Fell from Rotating Rod (mice [3]; 60 mg/kg ip): 86%
- Ki (human 5-HT7 receptor): 6.31 µM
